Data: patent US9701711B2, “Modulators of protease activated receptors” (THE UNIVERSITY OF QUEENSLAND, priority 2010, dated 2017)
Where “and” joins values, the source holds several entries; their conditions need not be identical. Equal entries are not always repeated.

These compounds were tested against T1, PAR2 (Homo sapiens, UniProt P55085) (assay: PAR2 activation (agonist) by intracellular calcium mobilisation in HT29 cells). Conditions: EC50, agonist or partial agonist of Ca2+ release in HT29 cells, Fluo-3 fluorescence.
T1 sequence (P55085 26-397): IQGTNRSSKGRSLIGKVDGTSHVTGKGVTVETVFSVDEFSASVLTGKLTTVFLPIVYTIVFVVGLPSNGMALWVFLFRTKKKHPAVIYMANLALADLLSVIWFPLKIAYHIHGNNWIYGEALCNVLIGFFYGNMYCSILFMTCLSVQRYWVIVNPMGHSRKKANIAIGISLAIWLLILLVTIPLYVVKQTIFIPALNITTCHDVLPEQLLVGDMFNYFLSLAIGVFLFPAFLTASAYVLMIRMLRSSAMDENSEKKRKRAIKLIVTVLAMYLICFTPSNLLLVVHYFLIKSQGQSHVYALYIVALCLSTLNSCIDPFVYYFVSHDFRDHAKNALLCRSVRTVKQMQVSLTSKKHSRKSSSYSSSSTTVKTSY
Type: cell-based
Design: Agonists of Ca^2+ release in HT29 cells; endogenous in cells; host or cells: HT29 (human cell line, cultured per ATCC information)
From the text: (§1) The ability of the compounds of the present invention to activate PAR2 may be assessed via calcium mobilisation assays. It is appreciated that compounds that activate the release of intracellular calcium from one type of cell are agonists or partial agonists, while those that inhibit such release may be antagonists. […] The general assay protocols may vary slightly depending on the chosen cell line. In general, during cell culture passage, cell dissociation solution (CDS, Sigma Aldrich) is used to replace trypsin to dissociate cells from surface. Lipopolysaccharide (LPS) and trypsin are purchased from Sigma Aldrich. […] ELISA sets are purchased from BD Pharmingen (San Jose, Calif.) and cytokine array kits are purchased from RayBiotecho (Norcross, Ga.).
(§2) Cells are seeded overnight in 96-well black walled, clear bottomed, plate at approximately 2×10^4 to 4×10^5 cells per well. […] The cells are then washed twice with HBSS and transferred to a Polarstar spectrotluorimeter (BMG, Durham N.C.).
HBSS is prepared in-house and all other reagents are purchased from Invitrogen, Carlsbad. Plates are supplied by DKSH, Zurich. Calcimycin (A23187, Invitrogen) is used to measure maximum fluorescence, with individual results normalized accordingly.
Three different concentrations of 6 added to HT29 cells at room temperature. Duplicate measurements were made for each data point, accordingly, each data point represents mean±SEM. Net changes in fluorescence were calculated as a percentage relative to the maximum response given by 100 μM of the PAR2 agonist 2f-LIGRLO-NH2.

Structure (SMILES) | EC50 [µM]
CC[C@H](C)[C@H](NC(=O)[C@H](CC1CCCCC1)NC(=O)c1ccno1)C(=O)N1CCC2(CC1)OC(=O)c1ccccc12 [Compound 14] | 1.3
CC[C@H](C)[C@H](NC(=O)[C@H](CC1CCCCC1)NC(=O)c1ccno1)C(=O)N1CCC2(CC1)CC(=O)c1ccccc1O2 [Compound 15] | 0.76

Same assay, conditions: Fluo-3 fluorescence, read-out: EC50, agonist or partial agonist of Ca2+ release in HT29 cells

Structure (SMILES) | EC50
CC[C@H](C)[C@H](NC(=O)[C@H](CC1CCCCC1)NC(=O)c1ccno1)C(=O)NCc1ccccc1 [Compound 3] | 30 µM
CC[C@H](C)[C@H](NC(=O)[C@H](CC1CCCCC1)NC(=O)c1ccno1)C(=O)NCc1ccc(OC)cc1 [Compound 4] | 10 µM
CC[C@H](C)[C@H](NC(=O)[C@H](CC1CCCCC1)NC(=O)c1ccno1)C(=O)NCc1ccccc1Cl [Compound 5] | 10 µM
CC[C@H](C)[C@H](NC(=O)[C@H](CC1CCCCC1)NC(=O)c1ccno1)C(=O)NCc1ccccc1F [Compound 6, 5-isoxazoyl-Cha-Ile-aminomethyl-(2-fluoro)phenyl] | ~30 µM and 30 µM
CC[C@H](C)[C@H](NC(=O)[C@H](CC1CCCCC1)NC(=O)c1ccno1)C(=O)NCc1cccc(F)c1 [Compound 7] | 40 µM
CC[C@H](C)[C@H](NC(=O)[C@H](CC1CCCCC1)NC(=O)c1ccno1)C(=O)NCc1ccc(F)cc1 [Compound 8] | 40 µM
CC[C@H](C)[C@H](NC(=O)[C@H](CC1CCCCC1)NC(=O)c1ccno1)C(=O)NCc1ccccc1[N+](=O)[O-] [Compound 9] | 10 µM
CC[C@H](C)[C@H](NC(=O)[C@H](CC1CCCCC1)NC(=O)c1ccno1)C(=O)N1CCN(c2ccc(F)cc2)CC1 [Compound 10] | 10 µM
CC[C@H](C)[C@H](NC(=O)[C@H](CC1CCCCC1)NC(=O)c1ccno1)C(=O)N1CCc2cc(OC)c(OC)cc2C1 [Compound 11] | 5 to 10 µM
CC[C@H](C)[C@H](NC(=O)[C@H](CC1CCCCC1)NC(=O)c1ccno1)C(=O)N1CCC(NC(C)=O)(c2ccccc2)CC1 [Compound 12] | 1 to 6 µM
CC[C@H](C)[C@H](NC(=O)[C@H](CC1CCCCC1)NC(=O)c1ccno1)C(=O)N1CCC2(CC1)CN(S(C)(=O)=O)c1ccccc12 [Compound 13] | 1.8 µM
CC[C@H](C)[C@H](NC(=O)[C@H](CC1CCCCC1)NC(=O)c1ccno1)C(=O)N1CCC2(CC1)c1ccccc1C(O)C2O (some centres unmarked) [Compound 16] | 5 to 7 µM
CC[C@H](C)[C@H](NC(=O)[C@H](CC1CCCCC1)NC(=O)c1ccno1)C(=O)N1CCC2(CC1)c1ccccc1C(NCc1ccc(F)cc1)C2O (some centres unmarked) [Compound 17] | 20 µM

Same assay, conditions: HT-29, compound at 30 μM, room temperature, read-out: Response relative to the maximum response given by 100 μM 2f-LIGRLO-NH2

Structure (SMILES) | Emax at 30 µM [%]
CC[C@H](C)[C@H](NC(=O)[C@H](CC1CCCCC1)NC(=O)c1ccno1)C(=O)NCc1ccccc1F [Compound 6, 5-isoxazoyl-Cha-Ile-aminomethyl-(2-fluoro)phenyl] | ≤ 50

These compounds were tested against T1, PAR2 (assay: PAR2 agonist inhibition (antagonism) by intracellular Ca2+ release in HT29 cells). Conditions: not given.
Type: cell-based
Design: Agonists of Ca^2+ release in HT29 cells; endogenous in cells; host or cells: HT29 (human cell line, cultured per ATCC information)
From the text: as §1, §2
The cells are prepared as outlined above then treated with the “putative” antagonist 30 min prior to the addition of either trypsin or a synthetic agonist at a concentration equal to the agonists ED80.
The cells were then treated with 1 μM of the PAR2 agonist 2f-LIGRLO-NH2 (FIG. 2A. n=5) or 100 nM Trypsin (FIG. 2B, n=1). Each data point represents mean±SEM. Net changes in fluorescence were calculated as a percentage relative to the maximum response given 1 μM 2f-LIGRLO-NH2 or 100 nM Trypsin. Changes in fluorescence (% response) were plotted against logarithmic compound concentrations. The half maximal inhibitory concentration (IC50) values were derived from the dose response curve using a nonlinear regression curve in Graphpad Prism v5.

Structure (SMILES) | IC50 [µM]
CCC(C)Oc1ccccc1CNC(=O)[C@@H](NC(=O)[C@H](CC1CCCCC1)NC(=O)c1ccno1)[C@@H](C)CC (some centres unmarked) [Compound 25] | 1.6 ± 0.4

Same assay, conditions: HT29 cells; 30 min pre-incubation, then PAR2 agonist (1 μM 2f-LIGRLO-NH2); read-out: IC50, inhibition of Ca2+ release in HT29 cells

Structure (SMILES) | IC50 [µM]
CC[C@H](C)[C@H](NC(=O)[C@H](CC1CCCCC1)NC(=O)c1ccno1)C(=O)NCc1cccc(OC)c1 [Compound 19] | 0.5 ± 0.1
CC[C@H](C)[C@H](NC(=O)[C@H](CC1CCCCC1)NC(=O)c1ccno1)C(=O)NCc1ccccc1C [Compound 20] | 0.5 ± 0.1
CCOc1ccccc1CNC(=O)[C@@H](NC(=O)[C@H](CC1CCCCC1)NC(=O)c1ccno1)[C@@H](C)CC [Compound 21] | 0.7 ± 0.1
CCCOc1ccccc1CNC(=O)[C@@H](NC(=O)[C@H](CC1CCCCC1)NC(=O)c1ccno1)[C@@H](C)CC [Compound 22] | 2
CCCCOc1ccccc1CNC(=O)[C@@H](NC(=O)[C@H](CC1CCCCC1)NC(=O)c1ccno1)[C@@H](C)CC [Compound 23] | 40
CC[C@H](C)[C@H](NC(=O)[C@H](CC1CCCCC1)NC(=O)c1ccno1)C(=O)NCc1ccccc1OC(C)C [Compound 24, 5-isoxazoyl-Cha-Ile-aminomethyl-(2-isopropoxy)phenyl] | 1.3 ± 0.1
CC[C@H](C)[C@H](NC(=O)[C@H](CC1CCCCC1)NC(=O)c1ccno1)C(=O)NCc1cccc2c1OCO2 [Compound 26, 5-isoxazoyl-Cha-Ile-aminomethyl-(1,3-dioxalane)phenyl] | 0.4 ± 0.1
CC[C@H](C)[C@H](NC(=O)[C@H](CC1CCCCC1)NC(=O)c1ccno1)C(=O)NCc1ccc(Cl)c(Cl)c1 [Compound 27, 5-isoxazoyl-Cha-Ile-aminomethyl-(3,4-dichloro)phenyl] | 1.4 ± 0.8
CC[C@H](C)[C@H](NC(=O)[C@H](CC1CCCCC1)NC(=O)c1ccno1)C(=O)NCc1ccccc1C(F)(F)F [Compound 28] | 1 to 2
CC[C@H](C)[C@H](NC(=O)[C@H](CC1CCCCC1)NC(=O)c1ccno1)C(=O)NCc1cccc(C(=O)N2CCC(NCCN)(C(=O)NCc3ccccc3)CC2)c1 [Compound 29] | 0.7
CC[C@H](C)[C@H](NC(=O)[C@H](CC1CCCCC1)NC(=O)c1ccno1)C(=O)N1CCC(c2ccc(OC)cc2)CC1 [Compound 31] | 10
CC[C@H](C)[C@H](NC(=O)[C@H](CC1CCCCC1)NC(=O)c1ccno1)C(=O)N1CCC(c2cc(OC)ccc2OC)CC1 [Compound 32] | 5 to 10
CC[C@H](C)[C@H](NC(=O)[C@H](CC1CCCCC1)NC(=O)c1ccno1)C(=O)N1CCC(c2ccccc2C(F)(F)F)CC1 [Compound 33] | 10
CC[C@H](C)[C@H](NC(=O)[C@H](CC1CCCCC1)NC(=O)c1ccno1)C(=O)N1CCC(c2ccccc2-c2ccccc2)CC1 [Compound 34] | 25
CC[C@H](C)[C@H](NC(=O)[C@H](CC1CCCCC1)NC(=O)c1ccno1)C(=O)N1CCC(Cc2ccccc2)CC1 [Compound 35] | 8
CC[C@H](C)[C@H](NC(=O)[C@H](CC1CCCCC1)NC(=O)c1ccno1)C(=O)N1CCCC[C@H]1C(=O)NC(C)(C)C [Compound 36] | 8.6 ± 2.6
CC[C@H](C)[C@H](NC(=O)[C@H](CC1CCCCC1)NC(=O)c1ccno1)C(=O)N1CCC2(CCc3ccccc3O2)CC1 [Compound 37, 5-isoxazoyl-Cha-Ile-spiro[chroman-2,4′-piperidine]] | 5 to 10
CC[C@H](C)[C@H](NC(=O)[C@H](CC1CCCCC1)NC(=O)c1ccno1)C(=O)N1CCCC(Nc2cccc(C(F)(F)F)c2)C1 (some centres unmarked) [Compound 38] | 6
CC[C@H](C)[C@H](NC(=O)[C@H](CC1CCCCC1)NC(=O)c1ccno1)C(=O)N(C)Cc1ccccc1OC [Compound 39, 5-isoxazoyl-Cha-Ile-aminodimethyl-(2-methoxy)phenyl] | 6.4
COc1ccccc1CNC(=O)[C@@H](NC(=O)[C@H](CC1CCCCC1)NC(=O)c1ccno1)[C@@H](C)OC [Compound 40, 5-isoxazoyl-Cha-Thr(Me)-aminomethyl-(2-methoxy)phenyl] | 1.3
CC[C@H](C)[C@H](NC(=O)[C@H](CC1CCOCC1)NC(=O)c1ccno1)C(=O)N1CCC2(C=Cc3ccccc32)CC1 [Compound 43] | 60
